Experimental data taken from patent publication US20080027023A1, “Antiproliferative Compositions Comprising Aryl Substituted Xylopyranoside Derivatives” (priority 2004, published 2008).
Each block holds one compound with its values, some of them ahead of it.

Experiments:
rat C6 glioma cells = assay: Cellular growth assay (crystal violet, A600), rat C6 glioma cells; assay type: cell-based; settings: for growth-inhibitory effect compared to untreated cells (control): FIG. 1A; for inhibits growth: FIG. 1B; for effect on cell growth: FIG. 4
Source text: (§1) Cells were obtained from American type culture collection (ATCC, Rockville, Md.). Regular cell culture media, L-glutamine, penicillin-streptomycin, trypsin, and donor calf serum were obtained from Life Technologies. Dulbeccos Modified Earles Medium, medium 199 and Ham's F-12 medium were purchased from Sigma, difluoromethylornithine (DFMO) was from ILEX Oncology, San Antonio, Tex. Epidermal growth factor was purchased from Genzyme, Cambridge, Mass. and crystal violet from Merck, Germany.
(§2) Cells were cultured as monolayers in Dulbeccos Modified Earles Medium (DMEM) supplemented with 10% (v/v) fetal bovine serum, 2 mM L-glutamine, penicillin (100 U/mL) and streptomycin (100 μg/mL) in an incubator with humidified atmosphere and 5% CO2 at 37° C.
(§3) The growth assay procedure has been described elsewhere (Mani et al., 1998, Cancer Res. 58: 1099-1104). Cells were seeded into 96-well microculture plates at 3000 cells/well in DMEM supplemented with insulin (10 ng/mL), transferrin (25 ng/mL) and 10% fetal calf serum. After 4 h of plating the cells were placed in serum-free Ham's F-12 medium supplemented with insulin (10 ng/mL) and transferrin (25 ng/mL) for an additional 24 h. […] In some experiments cells were pre-treated with DFMO to up-regulate spermine uptake (Belting et al., 2003, J. Biol. Chem. 278: 47181-47189). Controls without growth factor as well as solvent (DMSO) controls were included. The total time of exposure to the various agents was 5 days. Cells were fixed in 1% glutaraldehyde dissolved in Hanks balanced salt solution (NaCl 80 g/L, KCl 4 g/l, glucose 10 g/L, KH2PO4 600 mg/L, NaHPO4 475 mg/L) for 15 min, then cell nuclei were stained with 0.1% crystal violet. After washing and cell lysis for 24 h in Triton X-100, the amount of bound dye was measured at A600 in a microplate photometer (Titertek multiscan). The results are presented as the difference between A600 obtained after 5 days and that obtained immediately after seeding of the cells (t=0).

[1] = system: rat C6 glioma cells implanted subcutaneously; assay: Subcutaneous C6 glioma tumors in SCID mice; assay type: in vivo
Description: (§4) Treatment with xyloside was daily contralateral subcutaneous injections (1.7 mM solution; 0.5 ml for mice, 5 ml for rats) for 2 weeks. DFMO (0.1% w/v) was administered via the drinking water.
(§5) Female SCIDnodCA mice (7-8 weeks old) or Fisher rats (12 week old) were kept under pathogen-free conditions in the animal barrier facility at the Biomedical Center, Lund University, according to the Swedish guidelines for humane treatment of laboratory animals. The experimental set-up was approved by the ethical committee for animal research in Malmö/Lund, Sweden. To generate tumors, rat C6 glioma cells or human bladder T24 carcinoma cells (1×10^6 cells in 200 μl PBS) were injected subcutaneously in the dorsal region of 7-8 week old mice (n=4-8) or intracerebrally in rats.
(§6) In the present studies, animals (n=8) received 1.7 mM Xyl-2-Nap-6-OH, i.e. a saturated solution, either ad libitum via the drinking water, or by daily injections either subcutaneously (0.5 ml for mice, 5 ml for rats) or intraperitoneally (0.5 ml) for a total period of up to 2 weeks. Controls received drinking water with no additives or daily injections with sterile water. Food and water intake and changes in body weight were monitored. The xyloside was administered either concurrent with or 3 weeks post-injection. In the latter case, the animals were randomly divided into control and treatment groups with no significant differences in tumor volume. The animals were sacrificed following 2-3 weeks of treatment, and tumor mass or volume was recorded.

cells = assay: Uptake of xyloside when added to cells; assay type: cell-based
Source text: Referring to FIG. 4, the results of treating rat C6 glioma cells with peracetylated Gal-4-Xyl-2-Nap-6-OH are shown. […] The reason for this difference is that peracetylated Gal-4-Xyl-2-Nap-6-OH is deacetylated by non-specific esterases after uptake into cells, whereby the resulting non-acetylated Gal-4-Xyl-2-Nap-6-OH remains trapped inside the cell resulting in a much higher local concentration. Accordingly, non-acetylated Gal-4-Xyl-2-Nap-6-OH is not taken up when added to cells.

A549 cells [2] = settings: Mani et al. Glycobiology 14: 387-397; cited from earlier work
[3] = system: tumor cells located subcutaneously or orthotopically; assay: Other animal experiments, tumor-bearing mice, various routes of administration; assay type: in vivo
Description: as §5, §6
Treatment with Xyl-2-Nap-6-OH reduce the average tumor load by 70-97% in mice receiving the compound concomitant with tumor cell inoculation as well as in mice with pre-formed tumors. […] Side-effects via inhibition of proteoglycan synthesis in cartilage and connective tissues is unlikely, as xyloside concentrations greater than 2 mM are required for their inhibition in vitro (Moses et al., 1999, Eur, J. Biochem. 26: 879-884).

[4] = system: rat C6 glioma cells implanted intracerebrally; assay: Intracerebral C6 glioma tumors in rats; assay type: in vivo
Description: as §4, §5
as §6, with “In the latter case, the animals were randomly divided into control and treatment groups with no significant differences in tumor volume.” left out

[5] = Saturated solution used for dosing; assay type: physicochemical; settings: drinking water / injection solution
Description: as §6

[6] = system: SV40 virus infected fibroblasts; settings: Mani et al. Glycobiology 14: 387-397; cited from earlier work
[7] = system: SV40 virus infected fibroblasts; assay: Growth inhibition of SV40 virus infected fibroblasts; assay type: cell-based; settings: combination with DFMO and spermine-NONOate
HepG2 hepatoma cells [8] = assay: Growth inhibition of HepG2 hepatoma cells; assay type: cell-based; settings: combination with DFMO and spermine-NONOate
[9] = system: normal human lung fibroblasts; assay: Cellular growth assay, normal human lung fibroblasts; assay type: cell-based
Source text: as §1, §2
The growth assay procedure has been described elsewhere (Mani et al., 1998, Cancer Res. 58: 1099-1104). Cells were seeded into 96-well microculture plates at 3000 cells/well in DMEM supplemented with insulin (10 ng/mL), transferrin (25 ng/mL) and 10% fetal calf serum. After 4 h of plating the cells were placed in serum-free Ham's F-12 medium supplemented with insulin (10 ng/mL) and transferrin (25 ng/mL) for an additional 24 h. […] After washing and cell lysis for 24 h in Triton X-100, the amount of bound dye was measured at A600 in a microplate photometer (Titertek multiscan). […]

HepG2 hepatoma cells [10] = settings: Mani et al. Glycobiology 14: 387-397; cited from earlier work
[11] = system: human bladder carcinoma T24 cells; assay: Cellular growth assay, human bladder carcinoma T24 cells; assay type: cell-based; settings: for cytotoxic effect on T24 cells: 0.5 mM xyloside, FIG. 5A / FIG. 2
Source text: as §1, §2, §3

A549 cells [12] = assay: Growth inhibition of A549 cells; assay type: cell-based; settings: combination with DFMO and spermine-NONOate
[13] = after uptake by DFMO-treated cells; cited from earlier work

SMILES: NCCC[C@](N)(C(=O)O)C(F)F [DFMO, α-difluoromethylornithine, reference compound]
growth-inhibitory effect compared to untreated cells (control) (rat C6 glioma cells; 5 mM DFMO alone): no significant growth-inhibitory effect
higher concentration of DFMO in the drinking water required for the same effect with DFMO alone ([1]; relative to 0.1% w/v DFMO given with Xyl-2-Nap-6-OH (83% reduction)): 10-20 fold

uptake when added to cells (cells): not taken up
SMILES: OC[C@H]1O[C@@H](O[C@@H]2CO[C@@H](Oc3ccc4cc(O)ccc4c3)[C@H](O)[C@H]2O)[C@H](O)[C@@H](O)[C@H]1O [Gal-4-Xyl-2-Nap-6-OH, 2-(6-hydroxynaphthyl)-4-O-(β-D-galactopyranosyl)-β-D-xylopyranoside]

SMILES: Oc1ccc2cc(OC3OCC(O)C(O)C3O)ccc2c1 (centres unmarked) [Xyl-2-Nap-6-OH]
growth inhibition (A549 cells [2]): selectively inhibits growth
inhibits growth (rat C6 glioma cells; 0.5 mM xyloside alone): 65%
inhibits growth (rat C6 glioma cells; 0.5 mM xyloside combined with 5 mM DFMO and 5 μM spermineNONOate): 93%
reduction of average tumor load ([3]; mice, compound given concomitant with tumor cell inoculation or to pre-formed tumors): 70-97%
toxic side-effects in vivo ([3]; mouse, in vivo): lack of obvious toxic side-effects
absorption and availability to tumor cells ([3]; various ways of administration including oral): adsorbed and made available to tumor cells
blood-brain barrier penetration ([4]; inferred from reduced intracerebral tumor volume in rats): can penetrate the blood-brain barrier
tumor volume ([4]; rats, intracerebral C6 glioma, daily s.c. injections of 1.7 mM solution, 5 ml, 2 weeks, FIG. 6B): reduced
concentration of saturated solution [5]: 1700 µM
growth inhibition [6]: selectively inhibits growth
subcutaneous C6 glioma tumor weight reduced ([1]; SCID mice, daily contralateral s.c. injections of 1.7 mM solution, 0.5 ml, 2 weeks, FIG. 6A): 78%
tumor-load reduced ([1]; mice treated with xyloside plus DFMO 0.1% w/v via the drinking water, FIG. 6C): 83%
effect of xyloside with DFMO and spermine-NONOate [7]: Synergistic cytotoxic effects
effect of xyloside with DFMO and spermine-NONOate (HepG2 hepatoma cells [8]): Synergistic cytotoxic effects
reduction of cell growth ([9]; 0.2 mM xyloside, 5 mM DFMO and 5 μM spermineNONOate, FIG. 3): 20%
growth inhibition (HepG2 hepatoma cells [10]): selectively inhibits growth
effect on cell growth ([11]; 0.2 mM xyloside alone, FIG. 2): marginally affected
effect on cell growth ([11]; 0.2 mM xyloside and 5 mM DFMO with 2.5 5 μM spermineNONOate): insufficient
effect on cell growth ([11]; 0.2 mM xyloside combined with 5 mM DFMO and 5 μM spermineNONOate, FIG. 2): complete cell death
effect on cell growth ([11]; 0.5 mM xyloside alone, FIG. 2): completely growth-arrested
cytotoxic effect on T24 cells [11]: marginally cytotoxic
effect of xyloside with DFMO and spermine-NONOate (A549 cells [12]): Synergistic cytotoxic effects

SMILES: CC(=O)OC[C@H]1O[C@@H](O[C@@H]2CO[C@@H](Oc3ccc4cc(OC(C)=O)ccc4c3)[C@H](OC(C)=O)[C@H]2OC(C)=O)[C@H](OC(C)=O)[C@@H](OC(C)=O)[C@H]1OC(C)=O [peracetylated Gal-4-Xyl-2-Nap-6-OH]
effect on cell growth (rat C6 glioma cells; 0.2 mM xyloside alone): complete growth-arrest
potency relative to Xyl-2-Nap-6-OH at the same concentrations (rat C6 glioma cells; comparison of FIG. 4 with FIG. 1B): at least 5 fold
effect on cell growth (rat C6 glioma cells; xyloside in combination with 5 mM DFMO and 5 μM spermineNONOate): significant cytotoxic effect

SMILES: CC(=O)Oc1ccc2cc(O[C@@H]3OC[C@@H](OC(C)=O)[C@H](OC(C)=O)[C@H]3OC(C)=O)ccc2c1 [peracetylated Xyl-2-Nap-6-OH]
effect on growth of normal human fibroblasts ([9]; 0.5 mM xyloside, FIG. 5B): does not affect growth
cytotoxic effect on T24 cells [11]: clear cytotoxic effect

SMILES: NCCCNCCCCN(CCCN)/[N+]([O-])=N/O [spermineNONOate, reference compound]
growth-inhibitory effect compared to untreated cells (control) (rat C6 glioma cells; 5 μM spermineNONOate alone): no significant growth-inhibitory effect
half-life of intracellular NO release [13]: 4 h
